According to patent publication US8124357B2 (priority 2005, dated 2012):

Tested on: Neuro-2A cells
Format: cell-based

For `CC1=C(/C=C/C(C)=C/C=C/C(C)=C/C(=O)O)C(C)(C)CCC1` [all trans retinoic acid, All Trans-Retinoic acid], the “BoNT/A SNAP25197-cleavage product (uptake of BoNT/A) after differentiation reagent” value was “increase”.
